{
  "source": "patent US20200237703A1",
  "about": "“OLEACEIN FOR USE IN ATHEROSCLEROSIS PREVENTION” (WARSZAWSKI UNIWERSYTET MEDYCZNY, priority 2017, published 2020)",
  "key": {"macrophage foam cells": {"tested_on": "macrophage foam cells", "assay": "Formation of foam cells / lipid deposits in macrophages, Red Oil O staining", "format": "cell-based, human", "settings": "oleacein 50 μmol/L + oxLDL 50 μg/mL", "experimental": "(§1) All experiments were conducted with the use of macrophage cells isolated from human peripheral blood. […] Expression of scavenger receptors was determined using flow cytometer. Visualization of lipid deposits in macrophages (foam cells) was carried out with the use of well-known Red Oil O staining method.\nThe images were acquired using fluorescence microscope Nikon TS100F. D—control, the cells without stimulation, E—the cells incubated with oleacein (50 μmol/L), F—the cells stimulated with oxLDL (50 μg/mI)—stimulated control, G—the cells incubated with oleacein (50 μmol/L) and oxLDL (50 μg/mL)."}, "[1]": {"tested_on": "macrophage cells isolated from human peripheral blood", "assay": "Cytotoxicity on macrophage cells", "format": "cell-based", "settings": "oleacein 20 μmol/L and 50 μmol/L, 72 hours", "experimental": "as §1"}},
  "data": [
    {"smiles": "C/C=C(/C=O)[C@@H](CC=O)CC(=O)OCCc1ccc(O)c(O)c1", "note": "[oleacein]", "values": [
      {"measurement": "effect on the formation of foam cells and lipid deposits", "setting": "macrophage foam cells", "result": "inhibitory effect"},
      {"measurement": "cytotoxicity on macrophage cells", "setting": "[1]", "result": "no cytotoxicity"}
    ]}
  ]
}
